≈ marks a conversion by molar mass, not a printed value.
Legend:
[1] = in vitro and in mice; cited from earlier work
L1210 cells = experiment: L1210 activity (bioliquid assay), cytotoxicity; format: cell-based; details: Mus musculus, L1210, 48 h; Table VIII; read-out: ID-50 L1210
Procedure, shortened: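 Suspension culture in RPMI with 15% FCS and 2-mercaptoethanol (60 μmol). Continuous compound exposure for 48 hours at 37° C under 5% CO2 in humidified air. Cell numbers then counted on an electronic microcell counter.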

DNA = details: cited from earlier work
L1210 [2] = experiment: In vivo L1210 experiments (TNO Rijswijk); set-up: species or system mice; details: Mus musculus, L1210, read-out: % T/C
Procedure: The in vivo L1210 experiments were carried out in male Balb/c X DBA.2 Fl hybrid mice at TNO, Rijswijk.
In these experiments also, the drugs were administered IP as suspensions in carboxymethyl cellulose […] as a single dose at the first day.

L1210 [3] = details: 3-6 mg/kg; Remers et al., J. Med. Chem. 26 16 (1983); cited from earlier work
Ovarian (MRI-H-207) line = format: in vivo, human; details: 5 mg/kg, days of treatment 0.7
From the text: The xenograft experiments have been carried by Dr. H. H. Fiebig of the University of Freiburg [Lung-NSCLC (LXGF) line, Renal line, Breast line; See: H. H. Fiebig et al., Behring Inst. Mitt., 74 343] and by Dr. E. Boven of the Free University Hospital Amsterdam [Ovarian (MRI-H-207) line; See: E. Boven et al., Cancer Res., 45, 86 (1985) and E. Boven et al., Eur. J. Clin. Oncol., 21, 1253 (1985)].
Mice: C57B1 athymic (nu/nu) female mice, 8 to 10 weeks of age were used for s.c. bilateral implantation of tumour fragments 2 mm diameter.
Treatment: E.O. 9 was dissolved in saline at a concentration of 0.5 mg/ml prior to administration. Drug doses and schedules were derived from studies in experimental murine tumour systems and from orientation studies in non-tumour-bearing nude mice. Treatment was started i.v. when tumours measured 50-150 mm^3. After randomization a group of 6-7 tumour-bearing mice was treated and a group of 5-6 tumour-bearing mice served as control.
Evaluation of efficacy: Tumours were measured twice weekly in three dimensions. Efficacy was expressed as the mean of relative tumour volume in treated animals vs. that in control animals×100 (% T/C). The optimal value was calculated within 35 days after the last injection. Toxic death (dead mice within two weeks after the last injection) were excluded from the evaluation.
MRI-H-207: An undifferentiated adenocarcinoma kindly provided by Dr. A. E. Bogden, Worcester, Mass, with a doubling time of 3-5 days.

MCF7 breast cancer cells = experiment: In vitro panel of human tumour lines (TNO): MCF-7; format: cell-based; details: about 72 hours; note: key: -: no inhibition of cell growth; +: total cell-kill
Procedure, shortened: (§1)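 Cells in Dulbecco's medium with 10% foetal calf serum were seeded 48 h, then exposed continuously to increasing compound concentrations (final ethanol <1%) for about 72 h at 37° in 10% CO2. Crystal violet staining after fixation; inhibiting concentration estimated qualitatively.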

WiDr cells; colon tumour = experiment: In vitro panel of human tumour lines (TNO): WiDr; format: cell-based; details: about 72 hours; note: key: -: no inhibition of cell growth; +: total cell-kill
Procedure, shortened: as §1

IgR37 cells melanoma = experiment: In vitro panel of human tumour lines (TNO): IgR-37; format: cell-based; details: about 72 hours; note: key: -: no inhibition of cell growth; +: total cell-kill
Procedure, shortened: (§2)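 Cells (5×10^4/ml, Dulbecco's medium + 10% FCS) grafted 48 h, then continuously exposed to compound (Hanks'/ethanol, final ethanol <1%) for about 72 h at 37°C, 10% CO2. Crystal violet fixation/staining; inhibiting concentration estimated qualitatively over increasing doses.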

[4] = tested on: supercoiled covalently closed circular (CCC) DNA; details: reducing agent, presence of oxygen; cited from earlier work
[5] = tested on: A 204 cells; rhabdomyosarcoma; experiment: In vitro panel of human tumour lines (TNO): A 204; format: cell-based; details: about 72 hours; note: key: -: no inhibition of cell growth; +: total cell-kill
Procedure, shortened: as §2

[6] = tested on: T 24 cells; bladder carcinoma; experiment: In vitro panel of human tumour lines (TNO): T 24; format: cell-based; details: about 72 hours; note: key: -: no inhibition of cell growth; +: total cell-kill
Procedure, shortened: as §2

[7] = tested on: breast, pancreatic and prostatic adenocarcinomas, colon, bladder, lung and gastro-intestinal cancer; details: cited from earlier work
[8] = tested on: R-1 cells (Rhabdomyosarcoma Cells); experiment: R-1 activity (bioliquid assay), cytotoxicity; format: cell-based; details: Rhabdomyosarcoma cell; Table VIII; read-out: ID-50 R-1
Procedure, shortened: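 Rhabdomyosarcoma R-1 cells (~10^6 per dish) in Dulbecco's medium with 10% FCS were exposed to drug solution, which was then replaced by fresh medium. Cells were trypsinized after 48 hours and counted electronically.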

COC1=C(C)C(=O)c2c(c(COC(N)=O)c3n2CCC3)C1=O [7-methoxymitosene]
antibacterial activity [1]: important antibacterial activity in vitro and in mice

CO[C@@]12[C@H](COC(N)=O)C3=C(C(=O)C(C)=C(N)C3=O)N1C[C@@H]1N[C@@H]12 [MMC, mitomycin C, reference compound]
IC50 (L1210 cells): 0.05 µg/mL (≈ 0.15 µM) | DNA crosslinks (DNA): caused rapid DNA instrand crosslinks in a dose dependent fashion | response vs control in vivo at 4 mg/kg (L1210 [2]; 4 mg/kg IP single dose): 200% | response vs control in vivo at 5 mg/kg (L1210 [2]; 5 mg/kg IP single dose): 175% | response vs control in vivo at 6 mg/kg (L1210 [2]; 6 mg/kg IP single dose): 175% | max. effect (% T/C) (L1210 [3]): 124-153% | toxic deaths (Ovarian (MRI-H-207) line): 1/7 | in vitro activity score, MCF-7 (MCF7 breast cancer cells; 0.01 μg/ml): - | in vitro activity score, MCF-7 (MCF7 breast cancer cells; 0.1 μg/ml): - | in vitro activity score, MCF-7 (MCF7 breast cancer cells; 10 μg/ml): + | in vitro activity score, WiDr (WiDr cells; colon tumour; 0.01 μg/ml): - | in vitro activity score, WiDr (WiDr cells; colon tumour; 0.1 μg/ml): - | in vitro activity score, WiDr (WiDr cells; colon tumour; 10 μg/ml): + | in vitro activity score, IgR-37 (IgR37 cells melanoma; 0.01 μg/ml): - | in vitro activity score, IgR-37 (IgR37 cells melanoma; 1.0 μg/ml): + | in vitro activity score, IgR-37 (IgR37 cells melanoma; 10 μg/ml): + | DNA strand breaks [4]: produced single strand breaks | in vitro activity score, A 204 ([5]; 0.01 μg/ml): - | in vitro activity score, A 204 ([5]; 1.0 μg/ml): + | in vitro activity score, A 204 ([5]; 10 μg/ml): + | in vitro activity score, T 24 ([6]; 0.01 μg/ml): - | in vitro activity score, T 24 ([6]; 10 μg/ml): + | antitumour activity [7]: active against breast, pancreatic and prostatic adenocarcinomas, and notably against colon, bladder, lung and gastro-intestinal cancer | IC50 [8]: 0.03 µg/mL (≈ 0.0897 µM)

From patent publication US5079257A, “Indoloquinone compounds” (priority 1986, dated 1992)
